pIC50: −log10 of the molar value.
Tested on: HEK293-STF3A cells
Assay: STF3A assay (STF luciferase reporter in Wnt3A-expressing HEK293 cells)
Format: cell-based
Conditions: Homo sapiens, 24 h, 1 day of treatment
Outline: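 HEK293 cells carrying the STF reporter and expressing Wnt3A, seeded 2×10^4 per well overnight, then treated 1 day with compound at final 50 μM to 1.5 nM. Luciferase activity read by luminescence after Steady-Glo reagent, 10 min at room temperature.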

Row | Structure (SMILES) | pIC50
1 | CC(C(=O)Nc1cnc(-c2cccnc2)cn1)N1CCCC2=C1C(=O)N(C)C2=O (centres unmarked) [Compound 23, 2-(6-methyl-5,7-dioxo-2,3,4,5,6,7-hexahydro-1H-pyrrolo[3,4-b]pyridin-1-yl)-N-(5-(pyridin-3-yl)pyrazin-2-yl)propanamide] | > 7.00
2 | Cc1cncc(-c2ccc(NC(=O)CN3CCCC4=C3C(=O)N(C)C4=O)nc2)c1 [Compound 148, 2-(6-methyl-5,7-dioxo-2,3,4,5,6,7-hexahydro-1H-pyrrolo[3,4-b]pyridin-1-yl)-N-(5′-methyl-[3,3′-bipyridin]-6-yl)acetamide] | > 7.00
3 | Cc1ncccc1-c1ccc(NC(=O)CN2CCCC3=C2C(=O)N(C2CC2)C3=O)nc1 [Compound 110, 2-(6-cyclopropyl-5,7-dioxo-2,3,4,5,6,7-hexahydro-1H-pyrrolo[3,4-b]pyridin-1-yl)-N-(2′-methyl-[3,3′-bipyridin]-6-yl)acetamide] | > 6.00
4 | O=C(CN1CCCC2=C1C(=O)N(C1CC1)C2=O)Nc1ccc(-c2cccnc2F)nc1 [Compound 135, 2-(6-cyclopropyl-5,7-dioxo-2,3,4,5,6,7-hexahydro-1H-pyrrolo[3,4-b]pyridin-1-yl)-N-(2′-fluoro-2,3′-bipyridin-5-yl)acetamide] | > 7.00
5 | Cc1cc(NC(=O)CN2CCCC3=C2C(=O)N(C2CC2)C3=O)cnc1-c1cccnc1 [Compound 133, 2-(6-cyclopropyl-5,7-dioxo-2,3,4,5,6,7-hexahydro-1H-pyrrolo[3,4-b]pyridin-1-yl)-N-(3-methyl-2,3′-bipyridin-5-yl)acetamide] | > 6.00
6 | CN1C(=O)C2=C(C1=O)N(CC(=O)Nc1ccc(-c3cccnc3)nc1)CCC2 [Compound 10, N-([2,3′-bipyridin]-5-yl)-2-(6-methyl-5,7-dioxo-2,3,4,5,6,7-hexahydro-1H-pyrrolo[3,4-b]pyridin-1-yl)acetamide] | > 7.00
7 | Cc1ncccc1-c1ccc(NC(=O)CN2CCCC3=C2C(=O)N(C2CC2)C3=O)cn1 [Compound 121, 2-(6-cyclopropyl-5,7-dioxo-2,3,4,5,6,7-hexahydro-1H-pyrrolo[3,4-b]pyridin-1-yl)-N-(2′-methyl-2,3′-bipyridin-5-yl)acetamide] | > 7.00
8 | O=C(CN1CCCC2=C1C(=O)N(C1CC1)C2=O)Nc1ccc(-c2cccnc2)nc1F [Compound 137] | > 7.00
9 | CN1C(=O)C2=C(C1=O)N(CC(=O)Nc1ncc(-c3ccccc3)cn1)CCC2 [Compound 36, 2-(6-methyl-5,7-dioxo-2,3,4,5,6,7-hexahydro-1H-pyrrolo[3,4-b]pyridin-1-yl)-N-(5-phenylpyrimidin-2-yl)acetamide] | > 7.00
10 | Cc1ccc(-c2ccc(NC(=O)CN3CCCC4=C3C(=O)N(C)C4=O)nc2)cn1 [Compound 39, 2-(6-methyl-5,7-dioxo-2,3,4,5,6,7-hexahydro-1H-pyrrolo[3,4-b]pyridin-1-yl)-N-(6′-methyl-[3,3′-bipyridin]-6-yl)acetamide] | > 7.00
11 | Cc1cncc(-c2ncc(NC(=O)CN3CCCC4=C3C(=O)N(C3CC3)C4=O)cc2C)c1 [Compound 68, 2-(6-cyclopropyl-5,7-dioxo-2,3,4,5,6,7-hexahydro-1H-pyrrolo[3,4-b]pyridin-1-yl)-N-(3,5′-dimethyl-[2,3′-bipyridin]-5-yl)acetamide] | > 7.00
12 | Cc1ccc(-c2cnc(NC(=O)CN3CCCC4=C3C(=O)N(C)C4=O)cn2)cn1 [Compound 35] | > 6.00
13 | CN1C(=O)C2=C(C1=O)N(CC(=O)Nc1ccc(-c3ccc(F)cc3)nn1)CCC2 [Compound 4, N-(6-(4-fluorophenyl)pyridazin-3-yl)-2-(6-methyl-5,7-dioxo-2,3,4,5,6,7-hexahydro-1H-pyrrolo[3,4-b]pyridin-1-yl)acetamide] | > 7.00
14 | O=C(CN1CCCC2=C1C(=O)N(C1CC1)C2=O)Nc1ccc(-c2cncc(Cl)c2)nn1 [Compound 58, N-(6-(5-chloropyridin-3-yl)pyridazin-3-yl)-2-(6-cyclopropyl-5,7-dioxo-2,3,4,5,6,7-hexahydro-1H-pyrrolo[3,4-b]pyridin-1-yl)acetamide] | > 7.00

Reference: patent US9981964B2 (Agency for Science, Technology and Research, priority 2013, dated 2018)
